Experimental data reported in patent publication US9539272B2, “HDAC 6 inhibitor-based methods for treating cancer” (SLOAN-KETTERING INSTITUTE FOR CANCER RESEARCH, priority 2009, dated 2017).

Assays:
recombinant human HDAC1 = recombinant human HDAC1 (Homo sapiens, UniProt Q13547); experiment: In vitro HDAC assay with fluorogenic substrate, HDAC 1
Protocol: (§1) Inhibition of HDAC 1 and HDAC 6 were analyzed with a fluorogenic substrate according to manufacture's protocol (HDAC assay reagents were purchased from BPS Biosciences, San Diego, Calif.). 50 μl reaction mixture, which contains 1×HDAC assay buffer, 5 units of recombinant human HDAC1 or HDAC 6, 10 μM substrate 3 and 1 μl inhibitor in DMSO, was incubated at 37° C. for 1 hour. […] The fluorescence intensity was measured at excitation of 360 nm and emission of 460 nm with SpectraMax Gemini XS microplate reader (Molecular Devices, Sunny Calif.).

LNCaP cells = experiment: Cell growth and viability by trypan blue exclusion, LNCaP; settings: LNCaP, 8 μM nil-tubacin alone
Protocol: 5×10^4 cells were seeded per well in a 24-well plate and cultured overnight prior to treating with the compound and/or other agents as indicated for each study. Cells were harvested at 24, 48 and 72 hrs after treatment by trypsin digestion. […] At least three independent analyses were performed for each time point.
To monitor cell growth and viability, cells were seeded in triplicate at 5×10^4 cells in 1 ml of medium in 24-well plates. The drugs were added at the indicated concentrations 24 h after seeding. Cells were harvested by trypsin digestion at 24 h, 48 h and 72 h following drug additions. Cell number and viability were determined by trypan blue exclusion.

recombinant human HDAC 6 = molecular target: T1, recombinant human HDAC 6 (Homo sapiens, UniProt Q9UBN7); experiment: In vitro HDAC assay with fluorogenic substrate, HDAC 6
T1 sequence (Q9UBN7 1-1215): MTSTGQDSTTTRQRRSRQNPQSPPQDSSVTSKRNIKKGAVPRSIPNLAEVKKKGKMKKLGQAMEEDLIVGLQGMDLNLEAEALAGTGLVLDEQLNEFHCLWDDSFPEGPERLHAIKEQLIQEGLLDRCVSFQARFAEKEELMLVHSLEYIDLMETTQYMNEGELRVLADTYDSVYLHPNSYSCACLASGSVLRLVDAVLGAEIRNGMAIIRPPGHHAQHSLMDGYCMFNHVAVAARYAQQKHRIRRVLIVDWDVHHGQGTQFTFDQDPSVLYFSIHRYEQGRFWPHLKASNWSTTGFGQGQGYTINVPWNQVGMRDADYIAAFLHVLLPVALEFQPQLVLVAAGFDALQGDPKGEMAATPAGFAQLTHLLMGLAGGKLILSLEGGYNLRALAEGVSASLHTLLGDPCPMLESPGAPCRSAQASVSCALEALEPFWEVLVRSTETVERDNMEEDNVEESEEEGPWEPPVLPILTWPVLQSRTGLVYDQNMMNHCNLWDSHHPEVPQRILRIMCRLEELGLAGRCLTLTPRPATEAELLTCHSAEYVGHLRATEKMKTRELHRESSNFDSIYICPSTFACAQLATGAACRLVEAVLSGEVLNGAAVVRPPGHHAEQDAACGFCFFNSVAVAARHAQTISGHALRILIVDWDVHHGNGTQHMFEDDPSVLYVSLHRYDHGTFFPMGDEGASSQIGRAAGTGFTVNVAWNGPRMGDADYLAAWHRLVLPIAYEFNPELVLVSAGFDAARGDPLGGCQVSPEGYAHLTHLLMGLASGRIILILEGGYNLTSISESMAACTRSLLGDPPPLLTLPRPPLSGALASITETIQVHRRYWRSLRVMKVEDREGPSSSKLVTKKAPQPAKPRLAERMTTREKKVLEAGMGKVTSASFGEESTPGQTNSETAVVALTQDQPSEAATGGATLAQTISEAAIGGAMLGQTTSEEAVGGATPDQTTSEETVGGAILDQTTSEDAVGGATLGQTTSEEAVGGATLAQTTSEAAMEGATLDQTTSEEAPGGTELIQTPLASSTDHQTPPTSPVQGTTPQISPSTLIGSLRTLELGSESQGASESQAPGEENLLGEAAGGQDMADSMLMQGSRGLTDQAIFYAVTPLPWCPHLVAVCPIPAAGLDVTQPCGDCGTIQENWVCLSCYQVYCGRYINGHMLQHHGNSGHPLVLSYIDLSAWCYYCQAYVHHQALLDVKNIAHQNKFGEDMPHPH
Protocol: as §1

[1] = system: acetylated tubulin and acetylated histone H3 in A549 cells; settings: 24 hrs, tubacin 0.2, 2 or 20 μM; cited from earlier work

Chain of recombinant human HDAC1 (Q13547 whole entry): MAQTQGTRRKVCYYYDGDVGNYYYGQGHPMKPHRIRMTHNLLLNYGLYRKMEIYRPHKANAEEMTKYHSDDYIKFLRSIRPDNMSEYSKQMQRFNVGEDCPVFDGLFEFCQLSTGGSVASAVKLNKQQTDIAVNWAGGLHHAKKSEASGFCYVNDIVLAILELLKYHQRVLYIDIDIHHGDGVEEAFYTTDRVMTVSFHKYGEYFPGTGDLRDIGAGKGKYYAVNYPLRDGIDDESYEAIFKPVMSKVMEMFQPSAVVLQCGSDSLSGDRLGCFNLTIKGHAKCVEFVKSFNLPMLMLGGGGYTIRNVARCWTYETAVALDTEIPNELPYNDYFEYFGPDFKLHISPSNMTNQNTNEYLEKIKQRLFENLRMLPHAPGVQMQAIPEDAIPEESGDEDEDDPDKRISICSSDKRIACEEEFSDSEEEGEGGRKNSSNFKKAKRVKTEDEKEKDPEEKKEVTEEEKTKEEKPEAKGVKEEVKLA

IC50 (recombinant human HDAC1): > 100 nM | IC50 (recombinant human HDAC 6): > 100 nM
SMILES: O=C(O)CCCCCCC(=O)Nc1ccc([C@H]2O[C@@H](CSc3nc(-c4ccccc4)c(-c4ccccc4)o3)C[C@@H](c3ccc(CO)cc3)O2)cc1 [niltubacin]
effect on cell growth or cell viability (LNCaP cells): did not have a detectable effect | accumulation of acetylated histone H3 [1]: did not induce accumulation | accumulation of acetylated tubulin [1]: did not induce the accumulation
